Results from patent publication US8530452B2, “Tricyclic boron compounds for antimicrobial therapy” (Micurx Pharmaceuticals, Inc., priority 2011, dated 2013).
Where two headings read alike, the source gives them in different places.

Tests used:
[1] = system: P. aeruginosa; test: MIC determination, antibacterial activity in vitro; assay type: cell-based, Pseudomonas aeruginosa; conditions: for MIC: Pseudomonas aeruginosa, read-out: MIC against P. aeruginosa; for reduced potency / loss of activity vs. P. aeruginosa compared to Example 7: MIC ratio vs Example 7
Excerpt: (§1) The in vitro activity of compounds provided herein may be assessed by standard testing procedures such as the determination of minimum inhibitory concentration (MIC) as described in Approved Standard. Methods for Dilution Antimicrobial Susceptibility Tests for Bacteria that Grow Aerobically, 3rd ed., 1993, published by the National Committee for Clinical Laboratory standards, Villanova, Pa., USA. Low MIC values indicate high antibacterial activity, while high MIC values reveal a reduced antibacterial activity (with higher drug concentration required for pathogen eradication in the latter instance).

[2] = rat PK model of intravenous administration; assay type: in vivo; conditions: for AUC: in vivo
Excerpt: To further elucidate therapeutic potential of drug compounds, pharmacokinetic (PK) data is used to establish the key parameters predictive of the therapy outcome, such as area under the curve (AUC) for a plot monitoring the change in the systemic drug concentration over time. Thus, a higher AUC value indicates a greater exposure to the drug, commonly associated with a greater therapeutic potential due to a higher amount of drug available to combat the infection in a mammal. In contrast, a lower AUC value indicates a reduced exposure to the drug under study, resulting in a reduced amount of antibiotic available to combat bacterial infestations. To that end, the compounds provided herein have been tested in the rat PK model of intravenous administration performed analogously to methods described in the monograph Current Protocols in Pharmacology, 2005, 7.1.1-7.1.26, John Wiley & Sons, Inc.

[3] = system: P. aeruginosa; test: P. aeruginosa neutropenic mouse thigh infection model; assay type: in vivo; conditions: for CFU reduction / CFU reduction, fold: side-by-side test Example 1 vs Example 10, dose not given; for reduction in the bacterial colony-forming units (CFU) / reduction in the bacterial colony-forming units (CFU), fold: 30 mg/kg
Experimental: To establish the efficacy of the compounds provided herein in vivo, testing in a P. aeruginosa neutropenic mouse thigh infection model was performed with subcutaneous administration of test compounds analogously to the method described by Andes et al. in Antimicrobial Agents and Chemotherapy, 2002, 46(11), 3484-3489. In this model, a greater reduction in the bacterial colony-forming units (CFU) indicates more beneficial therapeutic effect (more bacterial eradication), while a lower CFU reduction indicates a lower effect (less bacterial eradication). The in vivo antibacterial effect is also referred to as efficacy, in contrast to the term potency commonly used for in vitro activity (expressed as MIC).

[4] = system: K. pneumoniae; test: MIC determination, antibacterial activity in vitro; assay type: cell-based, Klebsiela pneumoniae; conditions: for MIC: Klebsiella pneumoniae, Strain K. pneumoniae KPN1004, read-out: MIC, K. pneumoniae (footnote c)
Excerpt: as §1

[5] = system: E. coli; test: MIC determination, antibacterial activity in vitro; assay type: cell-based, Escherichia coli; conditions: MIC ratio vs Example 24
Excerpt: as §1

[6] = system: A. baumannii; test: MIC determination, antibacterial activity in vitro; assay type: cell-based, Acinetobacter baumannii; conditions: for MIC: Acinetobacter baumannii, Strain A. baumannii MABA0001, read-out: MIC, A. baumannii (footnote b); for reduced potency / loss of activity vs. A. baumannii compared to Example 7: MIC ratio vs Example 7
Excerpt: as §1

[7] = system: Gram-negative pathogens; test: Antibacterial activity against Gram-negative pathogens in vitro (overall statements); assay type: cell-based; conditions: Table 1 pathogens overall
Excerpt: as §1

[8] = intravenous, dose not given, Example 1 vs Example 10, read-out: AUC
[9] = intravenous, 10 mg/kg, read-out: exposure (AUC)
[10] = subcutaneous, side-by-side test Example 3 vs Example 24
[11] = another test, side-by-side Example 3 vs Example 25

## Cl.NCC1OB2O[C@H](CO)COc3cccc1c32 (stereo partly drawn) [Example 1, ((8R)-2-(Aminomethyl)-7,8-dihydro-2H-1,6,9-trioxa-9a-borabenzo[cd]azulen-8-yl)methanol hydrochloride]
[1]
  MIC: 2 to 4 µg/mL
[2]; [8]
  AUC: ~11500 ng·h/mL
[2]; intravenous
  improvement in exposure (AUC) over reference compound of Example 10: more than 2 fold
[3]; side-by-side test
  superiority in the bacterial reduction over Example 10: 79 fold
[3]
  CFU reduction: about 3.2 log
  CFU reduction, fold: about 1584 fold

## Cl.NC[C@H]1OB2O[C@H](CO)COc3cccc1c32 [Example 3, ((2S,8R)-2-(Aminomethyl)-7,8-dihydro-2H-1,6,9-trioxa-9a-borabenzo[cd]azulen-8-yl)methanol hydrochloride]
[4]; MIC ratio vs Example 24
  improved activity against K. pneumoniae as compared to reference compound of Example 24: 2 fold
[5]
  improved activity against E. coli as compared to reference compound of Example 24: 2 fold
[1]; MIC ratio vs Example 24
  improved activity against P. aeruginosa as compared to reference compound of Example 24: 2 fold
[1]
  MIC: 2 to 4 µg/mL
[2]; [9]
  AUC: ~14100 ng·h/mL
[2]; intravenous, 10 mg/kg
  improvement in exposure (AUC) over reference compound of Example 24: 2.7 fold
  improvement in exposure (AUC) over reference compound of Example 25: over 2 fold
[3]; 30 mg/kg both agents
  higher degree of pathogen reduction compared to reference compound of Example 24: over 80 fold
  more efficient in thigh infection model compared to reference compound of Example 25: about 12 fold
[3]; [10]
  reduction in the bacterial colony-forming units (CFU): about 3.6 log
  reduction in the bacterial colony-forming units (CFU), fold: about 3981 fold
[3]; [11]
  reduction in the bacterial colony-forming units (CFU): about 3.44 log
  reduction in the bacterial colony-forming units (CFU), fold: about 2754 fold

## Cl.NCC1OB2O[C@@H](CO)COc3cccc1c32 (stereo partly drawn) [Example 4, ((8S)-2-(Aminomethyl)-7,8-dihydro-2H-1,6,9-trioxa-9a-borabenzo[cd]azulen-8-yl)methanol hydrochloride]
[4]
  MIC: 2000 µg/mL
[6]
  MIC: 4000 µg/mL
[1]
  MIC: 2 to 4 µg/mL

## Cl.NCC1OB2OC(CO)COc3cccc1c32 (stereo not drawn) [Example 7]
[4]
  MIC: 4000 µg/mL
[6]
  MIC: 4000 µg/mL
[1]
  MIC: 2 to 4 µg/mL

## Cl.NCC1OB2OCC(CO)Oc3cccc1c32 (stereo not drawn) [Example 11, (2-(Aminomethyl)-7,8-dihydro-2H-1,6,9-trioxa-9a-borabenzo[cd]azulen-7-yl)methanol hydrochloride]
[6]
  reduced potency / loss of activity vs. A. baumannii compared to Example 7: 4 fold
[1]
  reduced potency / loss of activity vs. P. aeruginosa compared to Example 7: 4 fold

## Cl.NCC1OB2OC(CCO)COc3cccc1c32 (stereo not drawn) [Example 12, 2-(2-(Aminomethyl)-7,8-dihydro-2H-1,6,9-trioxa-9a-borabenzo[cd]azulen-8-yl)ethanol hydrochloride]
[6]; compared to Example 7
  activity vs. A. baumannii in words: total loss of activity
[1]
  reduced potency / loss of activity vs. P. aeruginosa compared to Example 7: 4 fold

## CC1(CO)COc2cccc3c2B(OC3CN)O1.Cl (stereo not drawn) [Example 13, (2-(Aminomethyl)-8-methyl-7,8-dihydro-2H-1,6,9-trioxa-9a-borabenzo[cd]azulen-8-yl)methanol hydrochloride]
[6]
  reduced potency / loss of activity vs. A. baumannii compared to Example 7: about 4 fold

## CC(O)C1COc2cccc3c2B(OC3CN)O1.Cl (stereo not drawn) [Example 14, 1-(2-(Aminomethyl)-7,8-dihydro-2H-1,6,9-trioxa-9a-borabenzo[cd]azulen-8-yl)ethanol hydrochloride]
[6]
  reduced potency / loss of activity vs. A. baumannii compared to Example 7: about 4 fold

## Cl.NC[C@H]1OB2O[C@H](CO)COc3c(F)ccc1c32 [Example 18, ((2S,8R)-2-(Aminomethyl)-5-fluoro-7,8-dihydro-2H-1,6,9-trioxa-9a-borabenzo[cd]azulen-8-yl)methanol hydrochloride]
[7]
  antibacterial activity (potency) in words: reduced activity

## Cl.NCC1OB(O)c2c(OCCCO)cccc21 (stereo not drawn) [Reference Example 10, 3-(Aminomethyl)-7-(3-hydroxypropoxy)benzo[c][1,2]oxaborol-1(3H)-ol hydrochloride, reference compound]
[1]
  MIC: 8 µg/mL
[2]; [8]
  AUC: ~5370 ng·h/mL
[3]
  CFU reduction: about 1.3 log
  CFU reduction, fold: about 20 fold

## Cl.NCC1OB(O)c2c(OCC[C@H](O)CO)cccc21 (stereo partly drawn) [compound 22, (2S)-4-((3-(Aminomethyl)-1-hydroxy-1,3-dihydrobenzo[c][1,2]oxaborol-7-yl)oxy)butane-1,2-diol hydrochloride]
[7]
  antibacterial activity (potency) in words: essentially inactive

## Cl.NCC1OB(O)c2c(OCC(CO)CO)cccc21 (stereo not drawn) [compound 23, 2-(((3-(Aminomethyl)-1-hydroxy-1,3-dihydrobenzo[c][1,2]oxaborol-7-yl)oxy)methyl)propane-1,3-diol hydrochloride]
[7]
  antibacterial activity (potency) in words: essentially inactive

## Cl.NCC1OB2OCCOc3cccc1c32 (stereo not drawn) [compound 24, (7,8-Dihydro-2H-1,6,9-trioxa-9a-borabenzo[cd]azulen-2-yl)methanamine hydrochloride, reference compound]
[2]; [9]
  AUC: ~5300 ng·h/mL
[3]; [10]
  reduction in the bacterial colony-forming units (CFU): about 1.7 log
  reduction in the bacterial colony-forming units (CFU), fold: about 50 fold

## Cl.NC[C@H]1OB(O)c2c(OCCCO)cccc21 [compound 25, (S)-3-(Aminomethyl)-7-(3-hydroxypropoxy)benzo[c][1,2]oxaborol-1(3H)-ol hydrochloride, reference compound]
[7]
  antibacterial activity (potency) in words: active
[2]; iv, 10 mg/kg
  AUC: ~6240 ng·h/mL
[3]; [11]
  reduction in the bacterial colony-forming units (CFU): about 2.37 log
  reduction in the bacterial colony-forming units (CFU), fold: about 234 fold
